One experiment concerns SK-BR-3 cells. The experiment is described as follows: Determination of cell growth inhibition (crystal violet staining method). It counts as cell-based. Conditions: Homo sapiens; breast cancer cells SK-BR-3, 72 hours culture with test substance. How it is done:
Cell growth was assayed by a crystal violet staining method. SK-BR-3 cells (HTB-30) purchased from American Type Culture Collection were inoculated at a concentration of 5,000 cells/well to a 96-well plate (#353075, BD Biosciences). After culture at 37° C. for 24 hours in a 5% CO2 incubator, each test substance was added thereto, and the cells were further cultured for 72 hours. A 25% glutaraldehyde solution (#17025-25, Nacalai Tesque, Inc.) was added thereto at a concentration of 20 μL/well per 200 μL of the medium, and the plate was incubated at room temperature for 20 minutes to fix the cells. The plate was washed with water and dried. Then, a solution containing 0.05% crystal violet (#038-17792, Wako Pure Chemical Industries, Ltd.) and 20% methanol was added thereto at a concentration of 100 μL/well, and the plate was incubated at room temperature for 20 minutes to stain the cells. The plate was washed with water and dried. A mixed solution of 0.05 M NaH2PO4 and ethanol (mixed in equal amounts) was added thereto at a concentration of 100 μL/well. Absorbance was measured at 540 nm using a microplate reader (MTP-450, Corona Electric Co., Ltd.) and used as an index for the number of cells per well. Percent inhibition (%) of cell growth by each compound of the present invention was determined according to the formula shown below with the absorbance of no drug addition group as a control. […] Percent inhibition (%)=(C−T)/C×100, wherein T: Absorbance of well with test substance addition C: Absorbance of well without test substance addition.

For experiment [1], the target named is human HSP90 alpha protein (N-terminal, amino acids 2 to 236) (Homo sapiens (Human), UniProt P07900). The experiment is described as follows: Determination of HSP90-binding activity (AlphaScreen competitive assay with biotinylated geldanamycin). Conditions: inhibition of binding of biotinylated geldanamycin to purified HSP90 N-terminal protein, read-out: HSP-binding activity IC50. How it is done: First, a purified HSP90 solution was prepared as follows: a human HSP90 alpha gene (NCBI Reference Sequence accession no. NM-005348) region corresponding to amino acids 2 to 236 of human HSP90 alpha protein (NCBI Reference Sequence accession no. NP-005339; full length: 732 amino acids) was inserted to pET-19b (Novagen; Merck KGaA) to construct a plasmid pET-HS[…] for expression of the HSP90 N-terminal protein having a His-tag at the N-terminus. E. coli (BL21(DE3), Stratagene Corp.) was transformed with pET-HS[…] and then cultured at 37° C. for 4 hours in the presence of 0.5 mM isopropyl-beta-D-thiogalactopyranoside (Sigma-Aldrich Corp.). The collected E. coli was suspended in a lysis buffer (50 mM Tris-HCl (pH 7.5), 200 mM NaCl) and sonicated. The sonicated cell solution was centrifuged (40,000×g, 20 minutes), and the supernatant was used as a crude extract. This crude extract was fractionated using Ni Sepharose High Performance (GE Healthcare Japan Corp.) chromatography and HiLoad 26/60 Superdex 75 pg (GE Healthcare Japan Corp.). Then, a fraction of HSP90 protein concentrates was prepared in a solution containing 50 mM Tris-HCl (pH 7.5) and 20% glycerol as a purified HSP90 solution. The purified HSP90 solution was divided and stored at -80° C. until use. HSP90-binding activity was determined by an AlphaScreen competitive assay system. […] After reaction at room temperature for 2 hours, biotinylated geldanamycin was added thereto at a concentration of 40 nM/well and further reacted for 1 hour. Detection mix (20 mM HEPES-KOH (pH 7.5), 0.5% BSA, 0.04 mg/mL Nickel Chelate Acceptor beads, 0.04 mg/mL Streptavidin-coated Donor beads) (#6760619C, PerkinElmer, Inc.) was added to each well in an amount equal to the amount of the reaction solution and reacted at room temperature for 1 hour in the dark. Then, fluorescence intensity was measured using Multilabel Plate Reader EnVision (PerkinElmer, Inc.). Percent inhibition (%) of the binding of biotinylated geldanamycin by each compound of the present invention was determined according to the formula shown below with the fluorescence signal of no test substance addition group as a control. […] Percent inhibition (%)=(C-T)/C×100, wherein T: Signal of well with test substance addition C: Signal of well without test substance addition.
For orientation: In Alpha technology, singlet oxygen from a donor bead excites a nearby acceptor bead.

For the compound `CCc1cc(-c2ccc(C(N)=O)c(N)c2)c2cccc(-n3cnc(-c4cnn(C)c4)c3)c2n1` [Example 104, 2-Amino-4-(2-ethyl-8-(4-(1-methyl-1H-pyrazol-4-yl)-1H-imidazol-1-yl)quinolin-4-yl)benzamide], the 50% inhibitory concentration (IC50) in the experiment on SK-BR-3 cells came to 10 nM; in experiment [1], 60 nM.

With `CCc1cc(-c2ccc(C(N)=O)c(N)c2)c2cccc(-c3cnc4ccccc4c3)c2n1` [Example 120, 2-Amino-4-(2′-ethyl-3,8′-biquinolin-4′-yl)benzamide], the half-inhibitory concentration (IC50) with SK-BR-3 cells was found to be 30 nM; in experiment [1], 190 nM.

On to `Cc1ccc2ncc(-c3cccc4c(-c5ccc(C(N)=O)c(NC6CCC(O)CC6)c5)nccc34)cc2c1` (stereo not drawn) [Example 9, 2-(4-Hydroxycyclohexylamino)-4-(5-(6-methylquinolin-3-yl)isoquinolin-1-yl)benzamide], for which the IC50 with SK-BR-3 cells came to 50 nM; in experiment [1] it was 270 nM.

For the compound `CC(C)(C)Nc1cc(-c2ccnc3c(-n4cnc(-c5cccnc5)c4)cccc23)ccc1C(N)=O` [Example 131, 2-(Tert-butylamino)-4-(8-(4-(pyridin-3-yl)-1H-imidazol-1-yl)quinolin-4-yl)benzamide], the 50% inhibitory concentration (IC50) in the experiment with SK-BR-3 cells came to 140 nM; in experiment [1] it was 260 nM.

Regarding `CNc1cc(-c2nccc3c(-n4cnc(-c5cnn(C)c5)c4)cccc23)ccc1C(N)=O` [Example 58, 4-(5-(4-(1-Methyl-1H-pyrazol-4-yl)-1H-imidazol-1-yl)isoquinolin-1-yl)-2-(methylamino)benzamide], the half-inhibitory concentration (IC50) in the experiment with SK-BR-3 cells was 1440 nM; in experiment [1], 250 nM.

Regarding `Cc1cc(-c2ccc(C(N)=O)c(N)c2)c2cccc(-n3cnc(-c4cnn(C)c4)c3)c2n1` [Example 101, 2-Amino-4-(2-methyl-8-(4-(1-methyl-1H-pyrazol-4-yl)-1H-imidazol-1-yl)quinolin-4-yl)benzamide], the IC50 (in the experiment on SK-BR-3 cells; in experiment [1]) was 120 nM each time.

For the compound `CC(C)n1cc(-c2cn(-c3cccc4c(-c5ccc(C(N)=O)c(NC6CCC(O)CC6)c5)nccc34)cn2)cn1` (stereo not drawn) [Example 53, 2-(4-Hydroxycyclohexylamino)-4-(5-(4-(1-isopropyl-1H-pyrazol-4-yl)-1H-imidazol-1-yl)isoquinolin-1-yl)benzamide], the figures for the IC50 (in the experiment on SK-BR-3 cells; in experiment [1]) were 40 nM and 120 nM, respectively.

On to `CCc1cc(-c2ccc(C(N)=O)c(NC(C)(C)C)c2)c2cccc(-n3cnc(-c4cnn(C)c4)c3)c2n1` [Example 103, 2-(Tert-butylamino)-4-(2-ethyl-8-(4-(1-methyl-1H-pyrazol-4-yl)-1H-imidazol-1-yl)quinolin-4-yl)benzamide], for which the figures for the concentration for half-maximal inhibition (IC50) (with SK-BR-3 cells; in experiment [1]) were 10 nM and 120 nM, respectively.

As for `COCCNc1cc(-c2nccc3c(-n4cnc(-c5cnn(C)c5)c4)cccc23)ccc1C(N)=O` [Example 62, 2-(2-Methoxyethylamino)-4-(5-(4-(1-methyl-1H-pyrazol-4-yl)-1H-imidazol-1-yl)isoquinolin-1-yl)benzamide], the IC50 with SK-BR-3 cells was determined as 260 nM; in experiment [1], 210 nM.

`CCCNc1cc(C(N)=O)ccc1-c1cc(C(F)(F)F)nc2c(-n3cnc(-c4cnn(C)c4)c3)cccc12` [Example 87, 4-(8-(4-(1-Methyl-1H-pyrazol-4-yl)-1H-imidazol-1-yl)-2-(trifluoromethyl)quinolin-4-yl)-3-(propylamino)benzamide]: the half-inhibitory concentration (IC50) is 80 nM with SK-BR-3 cells and 280 nM in experiment [1].

`Cc1ccc(-c2cn(-c3cccc4c(-c5ccc(C(N)=O)c(N)c5)cc(C(F)(F)F)nc34)cn2)cn1` [Example 118, 2-Amino-4-(8-(4-(6-methylpyridin-3-yl)-1H-imidazol-1-yl)-2-(trifluoromethyl)quinolin-4-yl)benzamide]: the IC50 amounted to 60 nM with SK-BR-3 cells and 250 nM in experiment [1].

On to `CCc1nc2ncc(-c3cccc4c(-c5ccc(C(N)=O)c(NC6CCC(O)CC6)c5)nccc34)cc2[nH]1` (stereo not drawn) [Example 41, 4-(5-(2-Ethyl-1H-imidazo[4,5-b]pyridin-6-yl)isoquinolin-1-yl)-2-(4-hydroxycyclohexylamino)benzamide], for which the IC50 with SK-BR-3 cells came to 1270 nM; in experiment [1] it was 390 nM.

In general, IC50 refers to the concentration at which inhibition is half-maximal.

For the origin of these results see US8912181B2 (Taiho Pharmaceutical Co., Ltd., priority 2011, dated 2014).
